Measured values: patent US20080014186A1, “Hla-A24 or Hla-A2 Binding Peptides of Parathyroid Hormone-Related Protein” (GREEN PEPTIDE CO., LTD., priority 2004, published 2008)

Columns and labels:
[1] = tested on: PBMCs of HLA-A2^+ healthy donors and prostate cancer patients; assay: Assay for peptide-specific CTLs in PBMCs (IFN-γ ELISA, peptide-pulsed T2 cells); type: cell-based, human; conditions: for INF-γ production: T2 cells
[2] = tested on: IgG in plasma of HLA-A2^+ healthy donors and prostate cancer patients; assay: Peptide-specific IgG in plasma by ELISA (HLA-A2-binding PTHrP peptides); set-up: species or system human; conditions: for IgG reactive to the peptide in plasma (difference of OD): 1:100-diluted plasma
Protocol: Peptide-specific IgG levels in the plasma were measured by ELISA, as previously reported. In brief, peptide (20 μg/well)-immobilized plates were blocked with Block Ace (Yukijirushi, Tokyo, Japan) and washed with 0.05% Tween20-PBS, after which 100 μl/well of plasma sample diluted with 0.05% Tween20-Block Ace was added to the plate. After 2 hours incubation at 37° C., the plates were washed and further incubated for 2 hours with a 1:1000-diluted rabbit anti-human IgG (γ-chain-specific) (DAKO, Glostrup, Denmark). The plates were washed, and then 100 μl of 1:100-diluted goat anti-rabbit IgG-conjugated horseradish peroxidase (EnVision, DAKO) was added to each well, and the plates were then incubated at room temperature for 40 min. After the plates were washed once, 100 μl/well of tetramethyl benzidine substrate solution (KPL, Guildford, UK) was added, and the reaction was stopped by the addition of 1 M phosphoric acid. The values are shown as optical density (OD) units/ml, and responses to the HIV peptide were subtracted. IgG reactive to a corresponding PTHrP peptide was judged to be positive when the difference of the OD in 1:100-diluted plasma exceeded 0.05. The results that IgG reactive to either the PTHrP102-111 or the […] peptide was detected in 8 of 10 healthy donors and in 7 of 10 prostate cancers are shown in Table 2 hereinafter.
In a similar way to Example 3, it was examined whether IgGs reactive to peptides of PTHrP 42-51 and PTHrP 59-67 could be detected in the plasma of 10 healthy donors and 10 cancer patients. The cut-off value at 1:100-diluted plasma was ODO.054.

[3] = HLA-A2^+ prostate cancer patients

IgG reactive to the peptide in plasma (difference of OD) ([2]; HLA-A2^+ healthy donor #1): 0.0855 OD
IgG reactive to the peptide in plasma (difference of OD) ([2]; HLA-A2^+ healthy donor #7): 0.119 OD
IgG reactive to the peptide in plasma (difference of OD) ([2]; HLA-A2^+ healthy donor #8): 0.167 OD
IgG reactive to the peptide in plasma (difference of OD) ([2]; HLA-A2^+ healthy donor #9): 0.065 OD
IgG reactive to the peptide in plasma (difference of OD) ([2]; HLA-A2^+ healthy donor #10): 0.112 OD
Total (IgG-positive donors / donors tested) ([2]; HLA-A2^+ healthy donors): 5/10
IgG reactive to the peptide in plasma (difference of OD) ([2]; HLA-A2^+ prostate cancer patient #3): 0.0795 OD
IgG reactive to the peptide in plasma (difference of OD) ([2]; HLA-A2^+ prostate cancer patient #10): 0.1305 OD
Total (IgG-positive patients / patients tested) [2, 3]: 2/10
Sequence: FLHHLIAEIH [PTHrP 59-68, previously reported PTHrP peptide generating CTLs from HLA-A*0201 healthy donors [17], reference compound]
INF-γ production ([1]; HLA-A2^+ healthy donor #1 (A0201)): 23 pg/mL
INF-γ production ([1]; HLA-A2^+ healthy donor #2 (A0201)): 51 pg/mL
INF-γ production ([1]; HLA-A2^+ healthy donor #3 (A0201)): 0 pg/mL
INF-γ production ([1]; HLA-A2^+ healthy donor #4 (A0201)): 0 pg/mL
INF-γ production ([1]; HLA-A2^+ healthy donor #5 (A0206)): 0 pg/mL
INF-γ production ([1]; HLA-A2^+ healthy donor #6 (A0206)): 46 pg/mL
INF-γ production ([1]; HLA-A2^+ healthy donor #7 (A0206)): 0 pg/mL
INF-γ production ([1]; HLA-A2^+ healthy donor #8 (A0206)): 0 pg/mL
INF-γ production ([1]; HLA-A2^+ healthy donor #9 (A0206)): 0 pg/mL
INF-γ production ([1]; HLA-A2^+ healthy donor #10 (A0207)): 0 pg/mL
induced peptide-specific CTLs, number of donors ([1]; HLA-A2^+ healthy donors): no peptide-specific CTLs were induced
Total (donors with significant peptide-specific IFN-γ production / donors tested) ([1]; HLA-A2^+ healthy donors, p < 0.05): 0/10
INF-γ production ([1]; HLA-A2^+ prostate cancer patient #1 (A0206)): 31 pg/mL
INF-γ production ([1]; HLA-A2^+ prostate cancer patient #2 (A0210)): 0 pg/mL
INF-γ production ([1]; HLA-A2^+ prostate cancer patient #3 (A0210)): 48 pg/mL
INF-γ production ([1]; HLA-A2^+ prostate cancer patient #4 (A0206)): 138 pg/mL
INF-γ production ([1]; HLA-A2^+ prostate cancer patient #5 (A0206)): 154 pg/mL
INF-γ production ([1]; HLA-A2^+ prostate cancer patient #6 (A0207)): 0 pg/mL
INF-γ production ([1]; HLA-A2^+ prostate cancer patient #7 (A0206)): 222 pg/mL
INF-γ production ([1]; HLA-A2^+ prostate cancer patient #8 (A0206)): 146 pg/mL
INF-γ production ([1]; HLA-A2^+ prostate cancer patient #9 (A0201)): 43 pg/mL
INF-γ production ([1]; HLA-A2^+ prostate cancer patient #10 (A0201)): 112 pg/mL
induced peptide-specific CTLs (peptide-specific IFN-γ production), number of patients [1, 3]: 5 of 10
Total (patients with significant peptide-specific IFN-γ production / patients tested) ([1]; HLA-A2^+ prostate cancer patients, p < 0.05): 5/10
IgG reactive to the peptide in plasma (difference of OD) ([2]; HLA-A2^+ healthy donor #2): — (IgG reactive to a corresponding peptide was judged to be positive when a difference of OD in a 1:100-diluted plasma was more than 0.054.)
IgG reactive to the peptide in plasma (difference of OD) ([2]; HLA-A2^+ healthy donor #3): — (IgG reactive to a corresponding peptide was judged to be positive when a difference of OD in a 1:100-diluted plasma was more than 0.054.)
IgG reactive to the peptide in plasma (difference of OD) ([2]; HLA-A2^+ healthy donor #4): — (IgG reactive to a corresponding peptide was judged to be positive when a difference of OD in a 1:100-diluted plasma was more than 0.054.)
IgG reactive to the peptide in plasma (difference of OD) ([2]; HLA-A2^+ healthy donor #5): — (IgG reactive to a corresponding peptide was judged to be positive when a difference of OD in a 1:100-diluted plasma was more than 0.054.)
IgG reactive to the peptide in plasma (difference of OD) ([2]; HLA-A2^+ healthy donor #6): — (IgG reactive to a corresponding peptide was judged to be positive when a difference of OD in a 1:100-diluted plasma was more than 0.054.)
IgG reactive to the peptide in plasma (difference of OD) ([2]; HLA-A2^+ prostate cancer patient #1): — (IgG reactive to a corresponding peptide was judged to be positive when a difference of OD in a 1:100-diluted plasma was more than 0.054.)
IgG reactive to the peptide in plasma (difference of OD) ([2]; HLA-A2^+ prostate cancer patient #2): — (IgG reactive to a corresponding peptide was judged to be positive when a difference of OD in a 1:100-diluted plasma was more than 0.054.)
IgG reactive to the peptide in plasma (difference of OD) ([2]; HLA-A2^+ prostate cancer patient #4): — (IgG reactive to a corresponding peptide was judged to be positive when a difference of OD in a 1:100-diluted plasma was more than 0.054.)
IgG reactive to the peptide in plasma (difference of OD) ([2]; HLA-A2^+ prostate cancer patient #5): — (IgG reactive to a corresponding peptide was judged to be positive when a difference of OD in a 1:100-diluted plasma was more than 0.054.)
IgG reactive to the peptide in plasma (difference of OD) ([2]; HLA-A2^+ prostate cancer patient #6): — (IgG reactive to a corresponding peptide was judged to be positive when a difference of OD in a 1:100-diluted plasma was more than 0.054.)
IgG reactive to the peptide in plasma (difference of OD) ([2]; HLA-A2^+ prostate cancer patient #7): — (IgG reactive to a corresponding peptide was judged to be positive when a difference of OD in a 1:100-diluted plasma was more than 0.054.)
IgG reactive to the peptide in plasma (difference of OD) ([2]; HLA-A2^+ prostate cancer patient #8): — (IgG reactive to a corresponding peptide was judged to be positive when a difference of OD in a 1:100-diluted plasma was more than 0.054.)
IgG reactive to the peptide in plasma (difference of OD) ([2]; HLA-A2^+ prostate cancer patient #9): — (IgG reactive to a corresponding peptide was judged to be positive when a difference of OD in a 1:100-diluted plasma was more than 0.054.)
